Measurements reported in ChEMBL document CHEMBL6182916, “Unexpected Discovery of a Novel Triphenylphosphonium Alkylalcohol That Triggers Cancer Cell Death via Mitophagy and Ferroptosis” (J Med Chem, 2025).
Activity calls are given as the source filed them. The calls are words filed in the database; no cut-off is given here.

Assays:
[1] = tested on: HEK-293T; test: Downregulation of TIMM23 expression level in human HEK293T cells harbouring PINK knockout at 0.25 to 0.5 uM; assay type: functional, cell-based; conditions: dose 0.25-0.5 µM
[2] = tested on: HCC827; test: Induction of cell cycle arrest in human HCC827 cells assessed as accumulation of cells at G2 phase at 0.1 uM incubated for 24 hrs by PI staining based flow cytometry analysis (reference value: 7.15%); assay type: functional
[3] = tested on: HCC827; test: Induction of ferroptosis in human HCC827 cells assessed as increase in lipid peroxidation level incubated for 24 hrs by absorbance based analysis; assay type: functional, cell-based; conditions: dose 0.25-0.5 µM
[4] = tested on: HEK-293T; test: Downregulation of TIMM23 expression level in human HEK293T cells; assay type: functional, cell-based; conditions: dose 0.25-0.5 µM
[5] = Toxicity in male Kunming mouse assessed as change in body weight at 50 mg/kg, ip measured every two days for 7 days; assay type: organism-based; conditions: in vivo, 168 h, time 7 day
[6] = tested on: NCI-H1975; test: Antiproliferative activity against human NCI-H1975 cells assessed as inhibition of cell growth measured after 72 hrs by MTT assay; assay type: functional, cell-based; conditions: NCI-H1975, 72 h
[7] = tested on: HCC827; test: Effect on COX1 expression in human HCC827 cells at 0.25 to 0.5 uM incubated for 24 hrs by Western blot analysis; assay type: functional, cell-based; conditions: dose 0.25-0.5 µM
[8] = tested on: HCC827; test: Induction of apoptosis in human HCC827 cells assessed as early apoptotic cells at 0.25 uM measured after 48 hrs by annexin V and PI staining based flow cytometry analysis (reference value: 0.70%); assay type: functional
[9] = tested on: HCC827; test: Induction of ROS generation in human HCC827 cells at 1 uM incubated for 4 hrs in presence of VC by DCFH-DA staining based by absorbance based laser confocal microscopic analysis; assay type: functional, cell-based
[10] = tested on: HCC827; test: Induction of cell cycle arrest in human HCC827 cells assessed as accumulation of cells at G2 phase at 0.4 uM incubated for 24 hrs by PI staining based flow cytometry analysis (reference value: 7.15%); assay type: functional
[11] = Toxicity in female BALB/c mouse assessed as animal death at 30 mg/kg, ip measured for 7 days; assay type: organism-based; conditions: in vivo, 168 h, time 7 day
[12] = tested on: HCC827; test: Downregulation of TIMM23 expression level in human HCC827 cells at 0.5 uM by Western blot analysis; assay type: functional, cell-based; conditions: time 3-24 hrs
[13] = tested on: HEK-293T; test: Inhibition of colony formation in HEK293T cells at 0.05 to 0.1 uM incubated for 72 hrs by crystal violet staining based analysis; assay type: functional, cell-based; conditions: Homo sapiens, dose 0.05-0.1 µM
[14] = tested on: HCC827; test: Induction of ROS generation in human HCC827 cells assessed as fold change at 1 uM incubated for 4 hrs in presence of VC by DCFH-DA staining based by absorbance based laser confocal microscopic analysis (reference value: 2.67); assay type: functional
[15] = tested on: HCC827; test: Downregulation of VDAC1 expression level in human HCC827 cells 0.5 uM incubated for 3 to 24 hrs in presence of BFA by Western blot analysis; assay type: functional, cell-based; conditions: time 3-24 hrs
[16] = tested on: Mitochondrial membrane; test: Induction of mitochondrial membrane depolarization in human BEAS-2B cells assessed as JC-1 monomer ratio by measuring increase green fluorescence at 0.25 uM incubated for 4 hrs by JC-1 staining based confocal microscopy analysis; assay type: cell membranes
[17] = tested on: HCC827; test: Downregulation of TIMM23 expression level in human HCC827 cells incubated for 24 hrs by Western blot analysis; assay type: functional, cell-based; conditions: dose 0.25-0.5 µM
[18] = tested on: HCC827; test: Induction of mitochondrial dysfunction in human HCC827 cells assessed as suppression of basal respiration incubated for 4 hrs by Seahorse XF96 extracellular flux analyzer; assay type: functional, cell-based; conditions: dose 0.125-5 µM
[19] = tested on: HCC827; test: Induction of ROS generation in human HCC827 cells assessed as increase in superoxide anion level by measuring increase in red fluorescence intensity at 1 uM incubated for 4 hrs by laser scanning confocal fluorescence microscopic analysis; assay type: functional, cell-based
[20] = tested on: HCC827; test: Induction of cell cycle arrest in human HCC827 cells assessed as accumulation of cells at G2 phase at 0.2 uM incubated for 24 hrs by PI staining based flow cytometry analysis (reference value: 7.15%); assay type: functional
[21] = tested on: HCC827; test: Upregulation of PINK1 level in human HCC827 cells at 0.25 to 0.5 uM measured after 24 hrs; assay type: functional, cell-based; conditions: dose 0.25-0.5 µM
[22] = tested on: SK-LU-1; test: Antiproliferative activity against human SK-LU-1 cells assessed as inhibition of cell growth measured after 72 hrs by MTT assay; assay type: functional, cell-based; conditions: SK-LU-1, 72 h
[23] = tested on: HCC827; test: Induction of apoptosis in human HCC827 cells assessed as late apoptotic cells at 1 uM measured after 48 hrs by annexin V and PI staining based flow cytometry analysis (reference value: 2.18%); assay type: functional
[24] = tested on: HCC827; test: Induction of apoptosis in human HCC827 cells assessed as viable cells at 1.0 uM measured after 48 hrs by annexin V and PI staining based flow cytometry analysis (reference value: 96.74%); assay type: functional; conditions: read-out: Activity
[25] = tested on: HCC827; test: Antitumor activity against human HCC827 cells xenografted in female nude mouse model assessed as reduction in tumor weight at 5 to 10 mg/kg, ip measured every two days for 14 days; assay type: functional, organism-based; conditions: dose 5-10 mg/kg, time 14.0 day
[26] = tested on: HCC827; test: Downregulation of VDAC1 expression level in human HCC827 cells 0.25 to 0.5 uM incubated for 24 hrs in presence of BFA by Western blot analysis; assay type: functional, cell-based; conditions: dose 0.25-0.5 µM
[27] = tested on: HCC827; test: Antiproliferative activity against human HCC827 cells assessed as cell viability measured after 48 hrs by MTT assay; assay type: functional, cell-based; conditions: HCC827, 48 h
[28] = tested on: HCC827; test: Effect on UQCRC2 expression in human HCC827 cells at 0.25 to 0.5 uM; assay type: functional, cell-based; conditions: dose 0.25-0.5 µM
[29] = tested on: HCC827; test: Downregulation of HK-2 expression level in human HCC827 cells 0.25 to 0.5 uM incubated for 24 hrs in presence of BFA by Western blot analysis; assay type: functional, cell-based; conditions: dose 0.25-0.5 µM
[30] = tested on: HCC827; test: Induction of mitochondrial dysfunction in human HCC827 cells assessed as appearance of disrupted cristae at 1 uM after 24 hrs by TEM analysis; assay type: functional, cell-based
[31] = tested on: HCC827; test: Downregulation of TOMM20 expression level in human HCC827 cells at 0.5 uM by Western blot analysis; assay type: functional, cell-based; conditions: time 3-24 hrs
[32] = tested on: HCC827; test: Antiproliferative activity against human HCC827 cells assessed as increase in cell viability at 1 uM measured after 48 hrs in presence of BFA by MTT assay; assay type: functional, cell-based
[33] = tested on: HCC827; test: Induction of apoptosis in human HCC827 cells assessed as viable cells at 0.25 uM measured after 48 hrs by annexin V and PI staining based flow cytometry analysis (reference value: 96.74%); assay type: functional; conditions: read-out: Activity
[34] = tested on: HCC827; test: Antiproliferative activity against human HCC827 cells assessed as increase in cell viability at 1 uM measured after 48 hrs in presence of Rapa by MTT assay; assay type: functional, cell-based
[35] = tested on: HCC827; test: Induction of ROS generation in human HCC827 cells assessed as increase in NAD+/NADH ratio at 1 uM incubated for 4 hrs by absorbance based analysis; assay type: functional, cell-based
[36] = tested on: HCC827; test: Induction of mitochondrial dysfunction in human HCC827 cells assessed as suppression of ATP production incubated for 4 hrs by Seahorse XF96 extracellular flux analyzer; assay type: functional, cell-based; conditions: dose 0.125-5 µM
[37] = tested on: HCC827; test: Downregulation of TOMM20 expression level in human HCC827 cells incubated for 24 hrs by Western blot analysis; assay type: functional, cell-based; conditions: dose 0.25-0.5 µM
[38] = tested on: HCC827; test: Induction of cell cycle arrest in human HCC827 cells assessed as accumulation of cells at G1 phase incubated for 24 hrs by PI staining based flow cytometry analysis; assay type: functional; conditions: dose 0.1-0.4 µM

Cc1ccc([P+](CCCCCCCCCCO)(c2ccc(C)cc2)c2ccc(C)cc2)cc1.[Br-]
Activity [1]: inactive | Activity [2]: 4.83% | Activity [3]: Dose-dependent-effect | Activity [4]: Dose-dependent-effect | Activity [5]: Toxic | IC50 [6]: 200 nM | Activity [7]: Active | Activity [8]: 1.16% | Activity [9]: inactive | Activity [10]: 4.95% | Activity [11]: Non-toxic | Activity [12]: Time-dependent-effect | inhibition [13]: Minimal_effect | Activity [14]: 0.8 | Activity [15]: inactive | Activity [16]: inactive | Activity [17]: Dose-dependent-effect | Activity [18]: Dose-dependent-effect | Activity [19]: Active | Activity [20]: 3.91% | Activity [21]: Active | IC50 [22]: 230 nM | Activity [23]: 0.75% | viability at 1 µM [24]: 82.8% | Activity [25]: Active | Activity [26]: inactive | IC50 [27]: 120 nM | Activity [28]: Active | Activity [29]: inactive | Activity [30]: Active | Activity [31]: Time-dependent-effect | Activity [32]: Active | viability at 0.25 µM [33]: 92.6% | Activity [34]: inactive | Activity [35]: Active | Activity [36]: Dose-dependent-effect | Activity [37]: Dose-dependent-effect | Activity [38]: Dose-dependent-effect
